Experimental findings from patent publication US20080306243A1, “Hla-Binding Peptide, and Dna Fragment and Recombinant Vector Coding for Said Hla-Binding Peptide” (NEC CORPORATION, priority 2005, published 2008) are described below.

One assay concerns the target HLA-A2402 molecule (Homo sapiens, UniProt P04439, D101N/D140Y/D185E/E176V/E190D/F33S/G103R/G107R/I119L/I121M/I306V/K335N/L105A/L180Q/L300P/N151K/N90K/Q86E/Q94H/R106L/R138H/R89G/T104I/T345S/V100E/W191G/Y123F). Nature of the assay: Experiment of binding peptide to HLA-A2402 molecule (C1R-A24 cells, flow cytometry). The note with it: for Kd: binding to HLA-A2402 molecule, C1R-A24 cells, read-out: BINDING EXPERIMENT DATA (converted). The protocol:
(§1) The ability of a peptide to bind to an HLA-A2402 molecule, which is a product of the HLA-A*2402 gene, was measured using C1R-A24 cells expressing the HLA-A*2402 gene (cells prepared by Professor Masafumi Takiguchi, Kumamoto University being supplied with permission by Assistant Professor Masaki Yasukawa, Ehime University).
(§2) C1R-A24 cells were first exposed to acidic conditions at a pH of 3.3 for 30 seconds, thus dissociating and removing a light chain β2m, which is associated with HLA class I molecules in common, and an endogenous peptide originally bound to the HLA-A2402 molecule. After neutralization, purified β2m was added to C1R-A24 cells, the obtained product was added to serial dilutions of a peptide, and incubated on ice for 4 hours. Staining was carried out using fluorescently labeled monoclonal antibody 17A12, which recognizes association (MHC-pep) of the three members, that is, HLA-A2402 molecule, the peptide, and β2m, which had reassociated during the incubation.
(§3) Subsequently, the MHC-pep count per C1R-A24 cell (proportional to the strength of fluorescence of the above-mentioned fluorescent antibody) was quantitatively measured using an FACScan fluorescence-activated cell sorter (Becton Dickinson Biosciences). A binding dissociation constant Kd value between the HLA-A24 molecule and the peptide was calculated from the average strength of fluorescence per cell by a published method (Udaka et al., Immunogenetics, 51, 816-828, 2000).

The subject of assay [1] is human HLA-A type molecule. In words: Binding experiments summarised for HLA-A type molecules. On the procedure: as §1, §2, §3
The ability of a peptide to bind to an HLA-A0201 molecule, which is a product of the HLA-A*0201 gene, was measured using strain JY cells expressing the HLA-A*0201 (obtained from ATCC (American Type Culture Collection)).
JY cells were first exposed to acidic conditions at a pH of 3.8 for 30 seconds, thus dissociating and removing a light chain β2m and an endogenous peptide, which were noncovalently associated with the HLA-A0201 molecule. After neutralization, a reassociation experiment was carried out. The above-mentioned JY cells and the purified β2m were added to stepped serial dilutions of peptide for which the binding ability was to be measured, and incubation was carried out on ice for 4 hours. HLA-A0201 molecules that had reassociated up to this point were stained using the associating type specific fluorescently-labeled monoclonal antibody BB7.2.
Subsequently, the amount of fluorescence per cell was measured using a flow cytometer and a dissociation constant Kd value was calculated by a published method (Udaka et al., Immunogenetics, 51, 816-828, 2000).
(§4) The ability of a peptide to bind to an HLA-A0206 molecule, which is a product of the HLA-A*0206 gene, was measured using RA2.6 cells (cell strain newly prepared in Kochi University), wherein cDNA of the HLA-A*0206 gene is expressed in RAMS cells, which are mouse peptide transporter TAP-deficient cells.
(§5) RA2.6 cells were first cultured overnight at 26° C., serial dilutions of peptide were added to HLA-A0206 molecules having no peptide bound thereto that were deposited on the cell surface, and binding was carried out at room temperature for 30 minutes.
(§6) Subsequently, culturing was carried out at 37° C. for 3.5 hours, empty HLA-A0206 molecules to which no peptide were bound was denatured, and the tertiary structure was lost.
(§7) The cells were stained by adding thereto fluorescently labeled monoclonal antibody 17A10 or 17A12, which specifically recognize the peptide-binding HLA-A0206 molecule, and incubating on ice for 20 minutes.
(§8) Subsequently, the amount of fluorescence per cell was measured using a flow cytometer, and a dissociation constant Kd value was calculated by a published method (Udaka et al., Immunogenetics, 51, 816-828, 2000).

The next assay addresses T1, HLA-A0206 molecule (Homo sapiens, UniProt P04439, D140Y/D185E/D98H/E176V/E277Q/F33Y/G131W/G231S/I119V/I121R/I166T/I218V/L300P/L318F/N151K/N90K/P208A/P217A/Q86G/Q94H/R138H/R169H/T345S).
T1 construct: expressed in transfected cells; host or cells: RA2.6 cells (RAMS mouse TAP-deficient cells expressing HLA-A*0206 cDNA)
In words: Experiment of binding peptide to HLA-A0206 molecule (RA2.6 cells, flow cytometry). The note with it: for Kd: binding to HLA-A0206 molecule, RA2.6 cells, read-out: BINDING EXPERIMENT DATA (converted). On the procedure:
as §4, §5, §6, §7, §8

For a further assay, the target named is HLA-A0201 molecule (Homo sapiens, UniProt P04439, D140Y/D185E/D98H/E176V/E277Q/G131W/G231S/I119V/I121R/I166T/I218V/L300P/L318F/N151K/N90K/P208A/P217A/Q86G/Q94H/R138H/R169H/T345S). In words: Experiment of binding peptide to HLA-A0201 molecule (JY cells, flow cytometry). The conditions noted are these: expressed as -log Kd value.

pKd: −log10 of the molar value. Read-outs that look alike come from different tables or passages of the source. Ends that are not written are not given here.

Turning to `CC(C)C[C@H](NC(=O)[C@@H](NC(=O)[C@H](Cc1c[nH]c2ccccc12)NC(=O)[C@H](CCC(N)=O)NC(=O)[C@@H]1CCCN1C(=O)[C@H](Cc1c[nH]cn1)NC(=O)[C@@H](NC(=O)[C@H](CC(C)C)NC(=O)[C@@H](N)C(C)C)C(C)C)C(C)C)C(=O)O` [compound 9], at HLA-A2402 molecule, the Kd is 458 nM. In addition, the “binding to a human HLA-A type molecule” value in assay [1] (result in words) is reported as “experimentally confirmed to bind”. Turning to `CC(C)C[C@H](NC(=O)[C@@H](NC(=O)CN)C(C)C)C(=O)N[C@H](C(=O)N[C@@H](Cc1c[nH]cn1)C(=O)N1CCC[C@H]1C(=O)N[C@@H](CCC(N)=O)C(=O)N[C@@H](Cc1c[nH]c2ccccc12)C(=O)N[C@H](C(=O)O)C(C)C)C(C)C` [compound 19], on HLA-A0206 molecule, the Kd was 525 nM. The same measure, in the same setting: for `CC(C)C[C@H](N)C(=O)N[C@H](C(=O)N[C@@H](C)C(=O)N[C@@H](CO)C(=O)N[C@@H](CCCNC(=N)N)C(=O)NCC(=O)N[C@@H](CCCNC(=N)N)C(=O)N[C@@H](C)C(=O)N[C@H](C(=O)O)C(C)C)C(C)C` [compound 22] the value was 5580 nM. For the molecule DLPTQEPAL [compound 4], at HLA-A2402 molecule, the Kd is 5870 nM. Further, in assay [1] (result in words), the “binding to a human HLA-A type molecule” value was “experimentally confirmed to bind”.

In the case of DLPTQEPAL [compound 27], the Kd on HLA-A0206 molecule was 5440 nM. FHPEDTGQV [compound 13] gave a pKd at HLA-A0201 molecule of 5.53. GVLQGITSW [compound 8]: the Kd on HLA-A2402 molecule is 4200 nM. The “binding to a human HLA-A type molecule” value in assay [1] (result in words) is listed as “experimentally confirmed to bind”. In the case of ILLGRHSLF [compound 3], the Kd at HLA-A2402 molecule is 33.5 nM. Also, the “binding to a human HLA-A type molecule” value in assay [1] (result in words) is on record as “experimentally confirmed to bind”. For ILSRIVGGW [compound 6] the same measures were 62 nM and “experimentally confirmed to bind”. QVFQVSHSF [compound 5]: on HLA-A2402 molecule, the Kd is 47.8 nM. The “binding to a human HLA-A type molecule” value in assay [1] (result in words) is recorded as “experimentally confirmed to bind”. For VHPQKVTKF [compound 7], the Kd on HLA-A2402 molecule was 223 nM. The “binding to a human HLA-A type molecule” value in assay [1] (result in words) is given as “experimentally confirmed to bind”. WVLTAAHCI [compound 12] gave a pKd on HLA-A2402 molecule of 4.63. Further, the “binding to a human HLA-A type molecule” value in assay [1] is “experimentally confirmed to bind”.

As to WVLTAAHCI [compound 20], at HLA-A0206 molecule, the pKd was 5.95. WVPVVFLTL [compound 2]: the Kd at HLA-A2402 molecule is 50.9 nM. The “binding to a human HLA-A type molecule” value in assay [1] (result in words) is listed as “experimentally confirmed to bind”. For the molecule WVPVVFLTL [compound 24], the Kd at HLA-A0206 molecule is 182 nM.
